Experimental data reported in patent publication US8110681B2, “Compounds for the treatment of spinal muscular atrophy and other uses” (The United States of America as represented by the …, priority 2006, dated 2012).
Read-outs that look alike come from different tables or passages of the source.

Legend:
[1] = tested on: luciferase reporter containing the UAG stop codon; experiment: Translational read-through luciferase reporter assay, UAG stop codon; assay type: cell-based; conditions: read-out: MaxFold Increase
Text: This assay is described in detail in WO 01/44516 A2. This is a cell-based luciferase reporter assay designed to detect translational read-through via insertion of a translational stop codon within the luciferase coding sequence. In the presence of compounds that promote read-through of translational stop codons, active luciferase is produced and detected via chemiluminescence. We have shown that indoprofen analogs are active in two versions of this assay—one containing a UGA stop codon and one containing a UAG stop codon. The data in the table is from the luciferase reporter containing the UAG stop codon. This is the first stop codon downstream of the improper splice junction between exons 6 and 8 in the human SMN2 transcript.

[2] = tested on: SMN2-linked luciferase-reporter gene construct; experiment: SMN splice reporter assay (SMN2-linked luciferase reporter, Example 10); assay type: cell-based; conditions: for maximal fold induction: read-out: SMN Splice Reporter Assay (Example 10) Avg MaxFold Increase
Method in brief: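 Values are fold-increase in luciferase signal relative to baseline cells without compound. The cervical carcinoma line used holds a fusion of alternatively spliced SMN2 sequence and luciferase. Readable frame, and thus signal, arises only with exon 7-including splicing.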

[3] = SMN2-linked luciferase reporter, average
[4] = maximum fold increase of reporter signal, average
[5] = SMN2-linked luciferase reporter, average maximum fold increase

| SMILES | maximal fold induction [1] | EC50 [2, 3] [nM] | maximal fold induction [2, 4] | maximal fold induction [2, 5] |
| --- | --- | --- | --- | --- |
| CC(C(=O)O)c1ccc(N2Cc3ccc(N(C)C)cc3C2=O)cc1 (stereo not shown) [ALB-113648] | 3.3 | 28 | 1.6 | – |
| COCC(C)c1ccc(N2Cc3ccc(OC)cc3C2=O)cc1 (stereo not shown) [ALB-114783] | 2.6 | 186 | 1.37 | – |
| CC(C)c1ccc(N2Cc3cc4c(cc3C2=O)OCO4)cc1 [ALB-116362] | 2.3 | 123 | – | 1.52 |
| CC(C)c1ccc(N2Cc3ccc(Cl)cc3C2=O)cc1 [ALB-116246] | 2.7 | 31 | 1.35 | – |
| CC(C)c1ccc(N2Cc3ccccc3C2=O)cc1 [ALB-114274] | 2.6 | 52 | 1.4 | – |
| CC(C)c1ccc(N2Cc3ccc(O)cc3C2=O)cc1 [ALB-116078] | 3.3 | 267 | – | 1.64 |
| CC(C(=O)O)c1ccc(N2Cc3ccc(C(F)(F)F)cc3C2=O)cc1 (stereo not shown) [ALB-113652] | 2.9 | 1490 | 1.66 | – |
| COc1ccc2c(c1)C(=O)N(c1ccc(C(C)C(O)OC)cc1)C2 (stereo not shown) [ALB-114441] | 3.2 | 76 | 1.67 | – |
| Cc1ccc2c(c1)CN(c1ccc(C(C)C)cc1)C2=O [ALB-115948] | 2.8 | 30 | 1.42 | – |
| Cc1ccc2c(c1)C(=O)N(c1ccc(C(C)C)cc1)C2 [ALB-115586] | 2.3 | 97 | 1.32 | – |
| CC(C)(C)c1ccc(N2Cc3cc4c(cc3C2=O)OCCO4)cc1 [ALB-117452] | 2.2 | 289 | – | 1.4 |
| COc1ccc2c(c1)C(=O)N(c1ccc(C)cc1)C2 [ALB-115084] | 2.3 | 60 | 1.39 | – |
| Cc1cccc2c1C(=O)N(c1ccc(C(C)C)cc1)C2 [ALB-115812] | 3 | 163 | 1.35 | – |
| CCCc1ccc2c(c1)C(=O)N(c1ccc(C(C)C(=O)OC(C)(C)C)cc1)C2 (stereo not shown) [ALB-113213] | 1.9 | 565 | 1.23 | – |
| CC(C(=O)O)c1ccc(N2Cc3ccc(Cl)cc3C2=O)cc1 (stereo not shown) [ALB-111743] | 2.7 | 267 | 1.67 | – |
| CCCC(C)c1ccc(N2Cc3ccc(OC)cc3C2=O)cc1 (stereo not shown) [ALB-117451] | 2.1 | 2910 | 1.74 | – |
| CC(C)c1ccc(N2Cc3ccc(Br)cc3C2=O)cc1 [ALB-114901] | 2.6 | 193 | 1.52 | – |

| SMILES | maximal fold induction [1] | EC50 [2, 3] [nM] | maximal fold induction [2, 4] | maximal fold induction [2, 5] |
| --- | --- | --- | --- | --- |
| CC(C(=O)O)c1ccc(N2Cc3cc4c(cc3C2=O)OCCO4)cc1 (stereo not shown) [ALB-114844] | 2.4 | 8 | 1.36 | – |
| CC(C)c1ccc(N2Cc3cccc(Cl)c3C2=O)cc1 [ALB-117454] | 3.1 | 470 | 1.51 | – |
| CC(C(=O)O)c1ccc(N2Cc3ccccc3C2=O)c(-c2cccs2)c1 (stereo not shown) [ALB-112233] | – | – | 1.03 | – |
| CC(CN1CCOCC1)c1ccc(N2Cc3ccccc3C2=O)cc1 (stereo not shown) [ALB-113758] | – | 1400 | 1.29 | – |
| CC(C(=O)Nc1ccccc1)c1ccc(N2Cc3ccccc3C2=O)cc1 (stereo not shown) [ALB-112075] | – | 578 | 1.25 | – |
| CC(C)NC(=O)C(C)c1ccc(N2Cc3ccccc3C2=O)cc1 (stereo not shown) [ALB-112076] | – | 1370 | 1.12 | – |
| CC(C)c1ccc2c(c1)CN(c1ccc(C(C)C(=O)O)cc1)C2=O (stereo not shown) [ALB-113561] | – | – | 1.21 | – |
| CCCCCOc1ccc2c(c1)C(=O)N(c1ccc(C(C)C(=O)O)cc1)C2 (stereo not shown) [ALB-113494] | – | 1170 | 1.75 | – |
| CC(C(=O)O)c1ccc(N2C(=O)c3ccccc3C2C)cc1 (stereo not shown) [ALB-111964] | – | 1420 | 1.63 | – |
| COc1ccc2c(c1)C(=O)N(c1ccc(C3CC3)cc1)C2 [ALB-115803] | – | 15 | – | 1.26 |
| COc1cccc2c1CN(c1ccc(C(C)C(=O)OC(C)(C)C)cc1)C2=O (stereo not shown) [ALB-111894] | – | 3160 | 1.29 | – |
| CC(C(=O)O)c1ccc(N2Cc3ccccc3C2=O)cc1-c1ccccc1 (stereo not shown) [ALB-112234] | – | 25400 | 1.26 | – |
| CC(C(=O)O)c1ccc(N2Cc3ccc(OC(F)F)cc3C2=O)cc1 (stereo not shown) [ALB-119335] | – | 51 | – | 1.54 |
| CCCCCc1cccc2c1C(=O)N(c1ccc(C(C)C(=O)O)cc1)C2 (stereo not shown) [ALB-113497] | – | – | 1.18 | – |
| COCC(C)c1ccc(N2Cc3cc(OC)c(OC)cc3C2=O)cc1 (stereo not shown) [ALB-114943] | – | 1320 | 1.35 | – |
| CCCc1ccc2c(c1)C(=O)N(c1ccc(C(C)COC)cc1)C2 (stereo not shown) [ALB-114091] | – | 699 | 1.46 | – |
